Reference: article PMC3914206

What was measured:
panel of 442 kinases [1] = target: T1, panel of 442 kinases (Homo sapiens, UniProt Q15831); format: binding; conditions: Compound Concentration 10 µM
T1 construct: purchased KINOMEscan
T1 sequence (Q15831 1-433): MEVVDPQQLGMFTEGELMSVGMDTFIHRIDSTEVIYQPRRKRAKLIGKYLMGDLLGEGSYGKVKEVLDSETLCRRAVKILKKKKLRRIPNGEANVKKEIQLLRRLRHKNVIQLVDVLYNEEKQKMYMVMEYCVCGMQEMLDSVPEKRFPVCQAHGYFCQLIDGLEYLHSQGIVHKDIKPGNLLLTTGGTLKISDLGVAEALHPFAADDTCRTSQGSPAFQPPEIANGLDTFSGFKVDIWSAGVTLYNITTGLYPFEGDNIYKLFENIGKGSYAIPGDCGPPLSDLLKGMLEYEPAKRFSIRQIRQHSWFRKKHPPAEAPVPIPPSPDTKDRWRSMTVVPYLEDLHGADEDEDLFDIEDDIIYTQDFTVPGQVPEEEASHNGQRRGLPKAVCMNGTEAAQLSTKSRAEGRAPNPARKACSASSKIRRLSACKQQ
Text: (§1) We assessed the selectivity of members of this scaffold using the KINOMEscan methodology across a near comprehensive panel of 442 kinases [[18,27]].

panel of 442 kinases [2] = target: T2, panel of 442 kinases (Homo sapiens, UniProt Q8TD19); format: binding; conditions: Compound Concentration 10 µM
T2 construct: purchased KINOMEscan
T2 sequence (Q8TD19 1-979): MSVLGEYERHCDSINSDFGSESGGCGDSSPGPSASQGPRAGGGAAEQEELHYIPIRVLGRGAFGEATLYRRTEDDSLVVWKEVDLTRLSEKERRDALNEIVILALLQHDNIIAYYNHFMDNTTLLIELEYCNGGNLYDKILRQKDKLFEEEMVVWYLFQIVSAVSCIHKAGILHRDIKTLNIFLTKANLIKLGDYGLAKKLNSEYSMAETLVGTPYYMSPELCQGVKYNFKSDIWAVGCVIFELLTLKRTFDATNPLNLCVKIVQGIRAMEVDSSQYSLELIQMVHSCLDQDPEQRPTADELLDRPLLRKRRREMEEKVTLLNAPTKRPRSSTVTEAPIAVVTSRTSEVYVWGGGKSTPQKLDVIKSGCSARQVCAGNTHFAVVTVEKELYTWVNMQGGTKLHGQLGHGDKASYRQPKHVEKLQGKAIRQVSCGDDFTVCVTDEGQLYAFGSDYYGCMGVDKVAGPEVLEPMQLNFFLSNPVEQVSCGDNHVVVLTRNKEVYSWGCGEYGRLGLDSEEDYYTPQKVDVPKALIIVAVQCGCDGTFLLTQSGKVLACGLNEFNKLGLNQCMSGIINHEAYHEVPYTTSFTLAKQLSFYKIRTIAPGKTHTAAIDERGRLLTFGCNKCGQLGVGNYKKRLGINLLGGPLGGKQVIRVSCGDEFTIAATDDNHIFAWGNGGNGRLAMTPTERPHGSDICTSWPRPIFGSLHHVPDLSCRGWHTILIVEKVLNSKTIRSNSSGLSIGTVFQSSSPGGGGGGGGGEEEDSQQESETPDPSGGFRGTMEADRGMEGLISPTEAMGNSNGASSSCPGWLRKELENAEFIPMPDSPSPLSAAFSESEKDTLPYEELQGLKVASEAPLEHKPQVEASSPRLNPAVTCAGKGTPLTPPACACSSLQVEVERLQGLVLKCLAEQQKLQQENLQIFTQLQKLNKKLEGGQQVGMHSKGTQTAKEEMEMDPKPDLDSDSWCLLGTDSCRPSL
Text: as §1

| Structure (SMILES) | KINOMEscan: LKB1 (panel of 442 kinases [1]) | KINOMEscan: NEK9 (panel of 442 kinases [2]) |
| --- | --- | --- |
| COc1cc(C(=O)N2CCC(N3CCN(C)CC3)CC2)ccc1Nc1ncc2c(n1)N(C)c1ccccc1C(=O)N2C [15 (LRRK2-IN-1)] | 96 | 100 |
| COc1cc(C(=O)N2CCC(N3CCN(C)CC3)CC2)ccc1Nc1ncc2c(n1)N1CCc3cccc(c31)C(=O)N2C [Compound 24] |  | 87 |
| COc1cc(C(=O)N2CCC(N3CCN(C)CC3)CC2)ccc1Nc1ncc2c(n1)N(C1CCCC1)c1ccccc1C(=O)N2C [Compound 25, 11-cyclopentyl-2-((2-methoxy-4-(4-(4-methylpiperazin-1-yl)piperidine-1-carbonyl)phenyl)amino)-5-methyl-5H-benzo[e]pyrimido[5,4-b][1,4]diazepin-6(11H)-one] | 82 | 98 |
| CCOc1cc(C(=O)N2CCC(N3CCN(C)CC3)CC2)ccc1Nc1ncc2c(n1)N(C1CCCC1)c1ccccc1C(=O)N2C [Compound 26] | 100 | 100 |
